From US4183931A, “2-Ketoalkyl-4(3H)-quinazolinones” (Research Corporation, priority 1977, dated 1980)

Columns and labels:
[1] = NINCDS Maximal Electroshock Seizure Test (MES); format: in vivo, mice; settings: for minimal effective dose: read-out: MES: dosage level that elicited protection
Experimental: (§1) 1. Neurological Activity Tests. […] Compounds were evaluated for anticonvulsant activity in two seizure models, the maximal electroshock seizure (MES) test and the subcutaneous pentylenetetrazol (Metrazol) seizure threshold (scMet) test.
The Maximal Electroshock Seizure Test was performed according to the method described by Swinyard and coworkers,* wherein a drop of 0.9% saline is instilled in each eye prior to application of corneal electrodes. Seizures are elicited with a 50 Hz alternating current of 50 mA (5 to 7 times that necessary to elicit minimal electroshock seizures) delivered for 0.2 sec via corneal electrodes. This stimulus will produce a maximal seizure in all normal mice. The maximal seizure typically consists of a short period of initial tonic flexion and a prolonged period of hind limb tonic extension, followed by terminal clonus. The seizure lasts about 22 seconds. Abolition of the hind limb tonic extensor component of the seizure is defined as protection and indicates anticonvulsant activity in the test compound.
(§2) The ability of a compound to prevent maximal electroshock seizures is believed to correlate with its ability to prevent the spread of seizure discharge through neural tissue. Activity against maximal electroshock seizures is thought to indicate potential efficacy in the treatment of major motor (grand mal) seizures. […] Selective action in the test is believed to indicate potential efficacy against absence (petit mal) seizures.
(§3) As described earlier, the MES, scMet and Rotorod tests were performed one-half hour and four hours after administration of each compound.
(§4) In the Secondary Evaluation, median effective doses (ED50) are determined in the MES, scMet and Rotorod assays using the procedures defined in Pharmacology, 95, 99-113 (1949).
(§5) Separate groups of animals are used for each time period. The times of peak toxic and anticonvulsant effect are taken from the resulting graph of percent of animals responding vs. time, and the determinations of median effective doses are performed at those times.

[2] = NINCDS Subcutaneous Pentylenetetrazol (Metrazol) Seizure Threshold Test (scMet); format: in vivo, mice; settings: for minimal effective dose: sc, read-out: scMet: dosage level that elicited protection
Experimental: as §1
Subcutaneous Pentylenetetrazol (Metrazol) Seizure Threshold Test (scMet) produces threshold (clonic) seizures. Pentylenetetrazol is administered subcutaneously as a threshold 0.5% solution (in 0.9% sodium chloride) in a loose fold of skin on the back of the neck in a dose of 85 mg/kg. […] Metrazol is given 10 minutes before the beginning of the test to allow for the delay in onset of Metrazol action. The animal is observed for 30 minutes. Failure to observe even a threshold seizure (a single episode of clonic spasms at least 5 seconds in duration) is defined as protection and indicates anticonvulsant activity in the test compound. These two methods of seizure provocation reliably elicit well-characterizied seizure phenomena.
as §2, §3, §4, §5

[3] = NINCDS rotorod ataxia test (minimal neurotoxicity); format: in vivo, mice
Experimental: (§6) 1. Neurological Activity Tests. The biological testing program is designed to evaluate the following four aspects of drug action: (1) the existence and specificity of anticonvulsant activity; (2) the toxicity, particularly to the central nervous system; and, if the results of (1) and (2) are favorable, (3) the potency and protective index, a comparison between toxic and effective dose and (4) the time course of activity. Compounds were evaluated for anticonvulsant activity in two seizure models, the maximal electroshock seizure (MES) test and the subcutaneous pentylenetetrazol (Metrazol) seizure threshold (scMet) test.
Central nervous system toxicity was evaluated in the rotorod ataxia test. This test is designed to detect minimal neurotoxicity. The animal is placed on a 1-inch diameter knurled plastic rod rotating at 6 rpm. Normal mice can remain indefinitely on a rod rotating at this speed. Neurological deficit is defined as the failure of the animal to remain on the rod for at least 1 minute. This test has a clear end-point, is quantifiable and correlates well with the clinical assessment of minimal toxicity.
(§7) Specific anticonvulsant evaluations performed by NINCDS using MES, scMet and Rotorod assays are presented in Tables III & IV for fourteen new compounds as well as several known compounds. Table III centers attention on 2-substituted-3-o-tolyl-4-(3H)-quinazolinones while Table IV includes the findings for various other 2,3-disubstituted-4(3H)-quinazolinones. As described earlier, the MES, scMet and Rotorod tests were performed one-half hour and four hours after administration of each compound. The tables identify the dosage level that elicited a positive result, such as protection against MES and scMet induced seizures, or loss of balance on the rotorod.
In the Secondary Evaluation, median effective doses (ED50) are determined in the MES, scMet and Rotorod assays using the procedures defined in Pharmacology, 95, 99-113 (1949). In addition, each compound's anticonvulsant activity and neurotoxicity over time are determined by measuring the effect of an intraperitoneally administered estimated median effective dose on maximal electroshock seizures and rotorod performance at intervals of 1/2, 1, 2, 3, 4, 6 and 8 hours.
as §5

[4] = NINCDS primary evaluation, overall classification; format: in vivo, mice; settings: primary evaluation
Experimental: as §6, §7

[5] = literature; cited from earlier work
[6] = Neuropharmacological Profile (NPP): general CNS observational screen (depression, righting reflex, ataxia); settings: at 30 mg/kg (value in parentheses), i.p., mice, score 0-8
Experimental: Representative compounds according to the present invention were tested for central nervous system activity by Pharmakon Laboratories of Scranton, Pennsylvania. The battery of general observational procedures used is referred to herein as a Neuropharmacological Profile (NPP). Additionally, representative compounds were tested in the Anticonvulsant Screening Project of the National Institutes of Neurological and Communicative Disorders and Stroke (NINCDS) at the University of Utah under the direction of Dr. Ewart A. Swinyard.
(§8) The procedures for the determination of a neuropharmacological profile involved white male mice of the Carworth Farm Strain CF-1 weighing 18 to 22 grams. […] Intraperitoneal injections were administered in logarithmic progression and sequentially. The dose levels employed routinely were 10, 30, 100 and 300 mg/kg, using four male mice at each dose level. Since this test was conducted in a sequential manner, the first does administered was at 300 mg/kg. […] Approximately thirty-eight signs and symptoms of pharmacological activity can be identified.
(§9) The animals were observed continously for one hour and, if no signs of pharmacological or toxicological activity were present at the end of the first hour, they were intermittently checked for activity every fifteen minutes thereafter for two consecutive hours. […] The observation period began immediately following the injection and the animals were then continuously observed for three hours and intermittently checked thereafter for forty-eight hours. The animals were observed and signs and symptoms of pharmacological activity were recorded continuously until no further symptoms developed and until the symptoms that appeared were no longer present. […] In such instances, the animals were observed beyond this period until they returned to normal. Routinely, the number of animals alive at the end of the forty-eight hour observation period was recorded and the LD50 estimated.
The animals are free to move about for evaluation of spatial orientation, alertness and spontaneous motor activity.
(§10) Since this is a general CNS screening procedure, only peak effects were recorded. Certain measures of behavior and neurological deficit were scored in terms of intensity of effect, while most others were determined on an all or none basis. Thus, in scoring measures which were normally present, e.g., spontaneous activity and skin color, an increase in score from 4 to 8 was used to denote stimulation or enhancement of skin color, whereas a decrease in score from 4 to 0 indicated depression or cyanosis. For scoring measures normally absent, e.g., depression, righting reflex and ataxia, activity was reflected as an increase in score from 0 to 8. The 0 to 8 scale was rounded off so that the actual ratings are only 0, 2, 4, 6 and 8. The compounds were also evaluated for anticonvulsant activity by using the maximal electroshock seizure (MES) test. In the MES study, four mice were dosed intraperitoneally at 100 mg/kg and challenged thirty minutes later with 50 mA, 0.2 second duration of electroshock. A protection ratio (number of mice protected from tonic extension .div. number of mice tested) was then established.
At the termination of the test, the results were recorded and tabulated.
(§11) Scores for behavioral symptoms, including depression, righting reflex and ataxia, are the actual numbers reported. Protection against MES is reported as a percentage. Since four animals were involved in this test, the findings are 0% for none protected, 25% for one out of four, etc. […] In order to maintain reasonable uniformity in the reporting of results, each entry corresponds to a dosage level of 100 mg/kg. Any variations from that dosage are indicated.

[7] = NPP maximal electroshock seizure (MES) protection; format: in vivo, white male mice of the Carworth Farm Strain CF-1; settings: Mus musculus, ip; conducted at 30 mg/kg i.p.
Experimental: as §8, §10, §11

[8] = NPP lethality (estimated LD50); settings: mouse, in vivo, ip
Experimental: as §8, §9, §11

[9] = literature; cited from earlier work; remark: listed apart in the source
[10] = literature, mice; cited from earlier work
[11] = literature; cited from earlier work; remark: listed apart in the source
[12] = Mus musculus, ip, after 4 hr (value in parentheses)
[13] = Mus musculus, after 4 hr (value in parentheses)
[14] = after 4 hr (value in parentheses)
[15] = Mus musculus, ip, secondary evaluation, at time of peak effect

Compound | minimal effective dose [1, 12] | minimal effective dose ([2]; Mus musculus, after 0.5 hr) | minimal effective dose [2, 13] | effectiveness in protection against scMet induced seizures, comparison methaqualone/mecloqualone ([2]; primary evaluation) | Rotorod: dosage level that elicited loss of balance ([3]; after 0.5 hr) | Rotorod: dosage level that elicited loss of balance [3, 14] | toxicity remark (footnote a to NINCDS classification) [4] | anticonvulsant activity (in words) [5] | CNS Depression [6] | responders at 30 mg/kg [7] | LD50 at 48 h [8] | minimal effective dose ([1]; Mus musculus, ip, after 0.5 hr) | ED50 [1, 15] | activity in the MES test, comparison methaqualone/mecloqualone ([1]; primary evaluation) | ED50 [2, 15] | TD50 ([3]; mouse, in vivo, ip, secondary evaluation, at time of peak effect) | sedative-hypnotic / hypnotic / depressant activity (in words) [9] | prevention of pentylenetetrazol induced convulsive seizures (in words) [10] | protection against maximal electro-shock seizures (in words) [11]
Cc1nc2ccccc2c(=O)n1-c1ccccc1Cl [mecloqualone, 2-methyl-3-o-chlorophenyl-4(3H)-quinazolinone, reference compound] | 300 mg/kg | 30 mg/kg | 100 mg/kg | more effective in protection against scMet induced seizures | 30 mg/kg | 100 mg/kg | Extremely toxic | better anticonvulsant agent than methaqualone |  |  |  |  |  |  |  |  |  |  | 
Cc1ccccc1-n1c(C)nc2ccccc2c1=O [methaqualone, 2-methyl-3-o-tolyl-4(3H)-quinazolinone, reference compound] | 300 mg/kg | 100 mg/kg | 300 mg/kg |  | 100 mg/kg | 300 mg/kg |  |  | 8 | 0% | > 562 mg/kg | 100 mg/kg | 52 mg/kg | more active in the MES test | 33.5 mg/kg | 55 mg/kg | comparable to short-acting barbiturates in terms of sedative-hypnotic activity | superior to sodium phenobarbitone | 
CCC1(c2ccccc2)C(=O)NC(=O)NC1=O [phenobartital] |  |  |  |  |  |  |  |  |  |  |  |  |  |  |  |  |  |  | better protector against maximal electro-shock seizures (MES) then methaqualone
